Experimental data reported in US20190275012A9, “SUBSTITUTED THIAZOLO-PYRIDINE COMPOUNDS AS MALT1 INHIBITORS” (Lupin Limited, priority 2016, published 2019).

Tests used:
OCI-Ly-10 cells = experiment: Anticancer assay (14 days), cell viability by CCK-8; assay type: cell-based; details: Homo sapiens, OCI-Ly10, 336 h, 14 days treatment, fresh treatment every 5th day, CCK-8 viability, read-out: Ly-10 (14d) inhibition IC50
Procedure: OCI-Ly-10 cells (UHN, Canada) seeded in culture media (IMDM+20% FBS) in 96-well plates were treated with various concentrations of the test compounds. Cells were treated for a period of 14 days (13-15 days depending on the confluency of cells) with fresh treatments every 5th day. After the first treatment, for all subsequent treatments, the cells were centrifuged, the spent media was removed and fresh media containing the test compound was added. Cell viability was assessed using CCK-8 kit (Dojindo Laboratories, China) as per manufacturer's instructions. Plates were read in colorimeter and absorbance was detected. (Detection at 450 nm; Background correction at 650 nm). % inhibition was calculated relative to the samples containing media with 0.1% DMSO alone as per the following formula

full length MALT1 enzyme = target: T1, full length MALT1 enzyme (Homo sapiens, UniProt Q9UDY8); experiment: MALT1 biochemical assay (fluorescence based, Ac-Leu-Arg-Ser-Arg-AMC cleavage); details: full length MALT1 protein, 2 h pre-incubation at RT, tetrapeptide substrate Ac-Leu-Arg-Ser-Arg-AMC, read-out: Malt 1 inhibition IC50
T1 construct: a fluorescence based assay with full length MALT1 enzyme
T1 sequence (Q9UDY8 1-824): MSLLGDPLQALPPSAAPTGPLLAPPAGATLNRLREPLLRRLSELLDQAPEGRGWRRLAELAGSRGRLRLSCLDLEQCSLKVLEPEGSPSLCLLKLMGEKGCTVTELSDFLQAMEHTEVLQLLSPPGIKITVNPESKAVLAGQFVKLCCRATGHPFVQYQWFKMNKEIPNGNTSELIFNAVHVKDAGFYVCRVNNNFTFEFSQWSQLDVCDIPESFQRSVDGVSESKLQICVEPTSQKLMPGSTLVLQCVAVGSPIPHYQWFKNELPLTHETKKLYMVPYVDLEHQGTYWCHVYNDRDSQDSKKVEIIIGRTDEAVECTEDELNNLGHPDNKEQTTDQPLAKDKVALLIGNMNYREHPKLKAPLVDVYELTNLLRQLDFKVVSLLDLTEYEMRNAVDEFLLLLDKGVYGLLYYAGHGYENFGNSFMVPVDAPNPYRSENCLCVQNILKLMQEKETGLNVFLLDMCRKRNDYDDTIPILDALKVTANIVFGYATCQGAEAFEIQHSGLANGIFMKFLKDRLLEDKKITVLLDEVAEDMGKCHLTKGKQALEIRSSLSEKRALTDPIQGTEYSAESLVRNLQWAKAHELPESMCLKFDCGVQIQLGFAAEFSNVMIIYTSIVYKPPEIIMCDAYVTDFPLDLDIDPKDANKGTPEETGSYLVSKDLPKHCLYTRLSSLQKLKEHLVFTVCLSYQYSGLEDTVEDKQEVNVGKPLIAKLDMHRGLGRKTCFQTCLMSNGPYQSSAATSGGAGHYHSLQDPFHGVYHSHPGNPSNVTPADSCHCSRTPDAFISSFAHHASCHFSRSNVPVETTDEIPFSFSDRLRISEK
Summary of the method: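 Full-length MALT1 (100-300 ng/well) was pre-incubated with compound for 2 h at RT, then 100 μM Ac-LRSR-AMC was added for 4-12 h. Buffer was 50 mM MES, 150 mM NaCl, 0.1% CHAPS, 1 M ammonium citrate, 10 mM DTT, pH 7, with 0.5% DMSO. IC50 was derived from AMC fluorescence (ex 360/em 460 nm).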

[1] = tested on: NF-kB transcriptional activity in HEK-293-NF-kB-Luc cell line overexpressing MALT1; experiment: NF-kB reporter assay (luciferase, MALT1 stably overexpressed); assay type: cell-based; details: Homo sapiens, 24 h, HEK-293-NF-kB-Luc cells stably overexpressing MALT1, 24 h treatment, Bright Glo luminescence; read-out: NF-kB inhibition IC50
Summary of the method: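 Inhibition of NF-κB activity was expressed relative to 0.1% DMSO wells, from luminescence after 10 min Bright Glo at ambient temperature. Compounds had been applied for 24 h to adhered MALT1-overexpressing HEK-293 NF-κB luciferase reporter cells.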

| SMILES | IC50 (OCI-Ly-10 cells) [nM] | IC50 (full length MALT1 enzyme) [nM] | IC50 [1] [nM] |
| --- | --- | --- | --- |
| COC(c1c(NC(=O)Nc2cnc(-n3nccn3)c(Cl)c2)cnc2sc(C)nc12)C(C)(C)C (single isomer, unassigned) [Compound 56b, 1-(5-chloro-6-(2H-1,2,3-triazol-2-yl)pyridin-3-yl)-3-(7-(1-methoxy-2,2-dimethylpropyl)-2-methylthiazolo[5,4-b]pyridin-6-yl)urea] | 26 to 100 | 1 to 50 |  |
| COc1ccc(Cl)cc1NC(=O)Nc1cnc2sc(C)nc2c1C(C)OC (single isomer, unassigned) [Compound 128b, 1-(5-Chloro-2-methoxyphenyl)-3-(7-(1-methoxyethyl)-2-methylthiazolo[5,4-b]pyridin-6-yl)urea] | 26 to 100 | 51 to 100 |  |
| COc1cc(-n2nccn2)c(Cl)cc1NC(=O)Nc1cnc2sc(C)nc2c1C(C)OC (single isomer, unassigned) [Compound 131b, 1-(5-Chloro-2-methoxy-4-(2H-1,2,3-triazol-2-yl)phenyl)-3-(7-(1-methoxyethyl)-2-methylthiazolo[5,4-b]pyridin-6-yl)urea] | 0.1 to 25 | 1 to 50 |  |
| CCC(OC)c1c(NC(=O)Nc2cnc(-n3nccn3)c(C(F)(F)F)c2)cnc2sc(C)nc12 (single isomer, unassigned) [Compound 146b, 1-(6-(2H-1,2,3-Triazol-2-yl)-5-(trifluoromethyl)pyridin-3-yl)-3-(7-(1-methoxypropyl)-2-methylthiazolo[5,4-b]pyridin-6-yl)urea] | 0.1 to 25 | 1 to 50 |  |
| COC(c1c(NC(=O)Nc2cnc(-n3nccn3)c(C(F)(F)F)c2)cnc2sc(C)nc12)C1CC1 (single isomer, unassigned) [Compound 151b, 1-(6-(2H-1,2,3-Triazol-2-yl)-5-(trifluoromethyl)pyridin-3-yl)-3-(7-(cyclopropyl(methoxy)methyl)-2-methylthiazolo[5,4-b]pyridin-6-yl)urea] | 0.1 to 25 | 1 to 50 |  |
| CCC(C)c1c(NC(=O)Nc2cnc(-n3nccn3)c(Cl)c2)cnc2sc(C)nc12 (single isomer, unassigned) [Compound 157b, 1-(7-(sec-Butyl)-2-methylthiazolo[5,4-b]pyridin-6-yl)-3-(5-chloro-6-(2H-1,2,3-triazol-2-yl)pyridin-3-yl)urea] | 26 to 100 | 1 to 50 |  |
| COc1ncc(NC(=O)Nc2cnc3sc(C)nc3c2C(C)OC)cc1Cl (single isomer, unassigned) [Compound 159a, 1-(5-Chloro-6-methoxypyridin-3-yl)-3-(7-(1-methoxyethyl)-2-methylthiazolo[5,4-b]pyridin-6-yl)urea] | 26 to 100 | 1 to 50 |  |
| COC(C)c1c(NC(=O)Nc2cnc(-n3cccn3)c(Cl)c2)cnc2sc(C)nc12 (single isomer, unassigned) [Compound 196b, (S) or (R)-1-(5-chloro-6-(1H-pyrazol-1-yl)pyridin-3-yl)-3-(7-(1-methoxyethyl)-2-methylthiazolo[5,4-b]pyridin-6-yl)urea] | 26 to 100 | 1 to 50 |  |
| O=C(Nc1cnc(-n2nccn2)c(Cl)c1)Nc1cnc2scnc2c1C1CC1 [Compound 35, 1-(5-Chloro-6-(2H-1,2,3-triazol-2-yl)pyridin-3-yl)-3-(7-cyclopropylthiazolo[5,4-b]pyridin-6-yl)urea] | 26 to 100 |  | 1 to 100 |
| Cc1nc2c(N(C)CC3CC3)c(NC(=O)Nc3cnc(-n4nccn4)c(Cl)c3)cnc2s1 [Compound 42, 1-(5-Chloro-6-(2H-1,2,3-triazol-2-yl)pyridin-3-yl)-3-(7-((cyclopropylmethyl)(methyl)amino)-2-methylthiazolo[5,4-b]pyridin-6-yl)urea] | 26 to 100 |  | 1 to 100 |
| COCCN(C)c1c(NC(=O)Nc2cnc(-n3nccn3)c(Cl)c2)cnc2sc(C)nc12 [Compound 44, 1-(5-Chloro-6-(2H-1,2,3-triazol-2-yl)pyridin-3-yl)-3-(7-((2-methoxyethyl)(methyl)amino)-2-methylthiazolo[5,4-b]pyridin-6-yl)urea] | 101 to 250 |  | 101 to 500 |
| COc1ncc(NC(=O)Nc2cnc3sc(C)nc3c2N(C)CC(C)OC)cc1Cl (stereo not shown) [Compound 55a, 1-(5-Chloro-6-methoxypyridin-3-yl)-3-(7-((2-methoxypropyl)(methyl)amino)-2-methylthiazolo[5,4-b]pyridin-6-yl)urea] | 101 to 250 |  | 501 to 1500 |
| COCCN(c1c(NC(=O)Nc2cnc(-n3nccn3)c(C(F)(F)F)c2)cnc2sc(C)nc12)C1CC1 [Compound 69, 1-(6-(2H-1,2,3-Triazol-2-yl)-5-(trifluoromethyl)pyridin-3-yl)-3-(7-(cyclopropyl (2-methoxyethyl)amino)-2-methylthiazolo[5,4-b]pyridin-6-yl)urea] | 101 to 250 |  | 1 to 100 |
| CCC(c1c(NC(=O)Nc2cnc(-n3nccn3)c(C(F)(F)F)c2)cnc2sc(C)nc12)N(C)C (stereo not shown) [Compound 75a, 1-(6-(2H-1,2,3-Triazol-2-yl)-5-(trifluoromethyl)pyridin-3-yl)-3-(7-(1-(dimethylamino)propyl)-2-methylthiazolo[5,4-b]pyridin-6-yl)urea] | 501 to 1500 |  | 101 to 500 |
| COC(c1c(NC(=O)Nc2cnc(-n3nccn3)c(Cl)c2)cnc2sc(C)nc12)C(C)C (stereo not shown) [Compound 79a, 1-(5-Chloro-6-(2H-1,2,3-triazol-2-yl)pyridin-3-yl)-3-(7-(1-methoxy-2-methylpropyl)-2-methylthiazolo[5,4-b]pyridin-6-yl)urea] | 101 to 250 |  | 101 to 500 |
| COc1nc(-n2nccn2)c(C(F)(F)F)cc1NC(=O)Nc1cnc2sc(C)nc2c1C(OC)C(C)C (stereo not shown) [Compound 80a, 1-(7-(1-Methoxy-2-methylpropyl)-2-methylthiazolo[5,4-b]pyridin-6-yl)-3-(2-methoxy-6-(2H-1,2,3-triazol-2-yl)-5-(trifluoromethyl)pyridin-3-yl)urea] | 26 to 100 |  | 1 to 100 |
| COC(c1ccc(F)cc1)c1c(NC(=O)Nc2cnc(-n3nccn3)c(C(F)(F)F)c2)cnc2sc(C)nc12 (stereo not shown) [Compound 85b, 1-(6-(2H-1,2,3-Triazol-2-yl)-5-(trifluoromethyl)pyridin-3-yl)-3-(7-((4-fluorophenyl)(methoxy)methyl)-2-methylthiazolo[5,4-b]pyridin-6-yl)urea] | 251 to 500 |  | 1 to 100 |
| COC(c1c(NC(=O)Nc2cnc(-n3nccn3)c(C(F)(F)F)c2)cnc2sc(C)nc12)C1CCC1 (stereo not shown) [Compound 224b, 1-(6-(2H-1,2,3-Triazol-2-yl)-5-(trifluoromethyl)pyridin-3-yl)-3-(7-(cyclobutyl(methoxy)methyl)-2-methylthiazolo[5,4-b]pyridin-6-yl)urea] | 0.1 to 25 |  | 1 to 100 |
| COC(c1c(NC(=O)Nc2cnc(-n3nccn3)c(Cl)c2)cnc2sc(C)nc12)C1CCC1 (stereo not shown) [Compound 225b, 1-(5-Chloro-6-(2H-1,2,3-triazol-2-yl)pyridin-3-yl)-3-(7-(cyclobutyl(methoxy)methyl)-2-methylthiazolo[5,4-b]pyridin-6-yl)urea] | 26 to 100 |  | 1 to 100 |
| CCOc1nc(-n2nccn2)c(C(F)(F)F)cc1NC(=O)Nc1cnc2sc(C)nc2c1C(OC)C1CC1 (stereo not shown) [Compound 226a, 1-(7-(Cyclopropyl(methoxy)methyl)-2-methylthiazolo[5,4-b]pyridin-6-yl)-3-(2-ethoxy-6-(2H-1,2,3-triazol-2-yl)-5-(trifluoromethyl)pyridin-3-yl)urea] | 26 to 100 |  | 1 to 100 |
